Results published in patent US7138361B2, “Herbicidal heterocycles” (E. I. du Pont de Nemours and Company, priority 2000, dated 2006).

Legend:
Type in all cases: in vivo
[1] = test system: crabgrass (Digitaria sanguinalis); assay: Test B preemergence
Text: (§1) Seeds selected from barnyardgrass (Echinochloa crus-galli), Surinam grass (Brachiaria decumbens), cocklebur (Xanthium strumarium), corn (Zea mays), crabgrass (Digitaria sanguinalis), giant foxtail (Setaria faberii), lambsquarters (Chenopodium album), morning glory (Ipomoea hederacea), pigweed (Amaranthus retroflexus), rice (Oryza saliva) and velvetleaf (Abutilon theophrasti) were planted and treated preemergence with test chemicals formulated in a non-phytotoxic solvent mixture which included a surfactant.
(§2) At the same time, plants selected from these crop and weed species and also blackgrass (Alopecurus myosuroides), wheat (Triticum aestivum) and wild oat (Avena fatua) were treated with postemergence applications of test chemicals formulated in the same manner. Plants ranged in height from 2 to 18 cm (1- to 4-leaf stage) for postemergence treatments. Plant species in the flooded paddy test consisted of rice (Oryza saliva), smallflower flatsedge (Cyperus difformis), duck salad (Heteranthera limosa) and barnyardgrass (Echinochloa crus-galli) grown to the 2-leaf stage for testing. Treated plants and controls were maintained in a greenhouse for 13 to 15 days, after which time all species were compared to controls and visually evaluated. Plant response ratings, summarized in Table B, are based on a scale of 0 to 100 where 0 is no effect and 100 is complete control. A dash (-) response means no test result.

[2] = test system: cocklebur (Xanthium strumarium); assay: Test B preemergence
Text: as §1, §2

[3] = test system: giant foxtail (Setaria faberii); assay: Test B preemergence
Text: as §1, §2

rice (Oryza saliva) [4] = assay: Test B preemergence
Text: as §1, §2

[5] = test system: barnyardgrass (Echinochloa crus-galli); assay: Test B preemergence
Text: as §1, §2

[6] = test system: morning glory (Ipomoea hederacea); assay: Test B preemergence
Text: as §1, §2

[7] = test system: pigweed (Amaranthus retroflexus); assay: Test B preemergence
Text: as §1, §2

[8] = test system: Surinam grass (Brachiaria decumbens); assay: Test B preemergence
Text: as §1, §2

corn (Zea mays) [9] = assay: Test B preemergence
Text: as §1, §2

[10] = test system: velvetleaf (Abutilon theophrasti); assay: Test B preemergence
Text: as §1, §2

[11] = test system: lambsquarters (Chenopodium album); assay: Test B preemergence
Text: as §1, §2

[12] = test system: crabgrass (Digitaria sanguinalis); assay: Test B postemergence; conditions: 13 to 15 days
Text: as §1, §2

[13] = test system: giant foxtail (Setaria faberii); assay: Test B postemergence; conditions: 13 to 15 days
Text: as §1, §2

[14] = test system: barnyardgrass (Echinochloa crus-galli); assay: Test B postemergence; conditions: 13 to 15 days
Text: as §1, §2

[15] = test system: blackgrass (Alopecurus myosuroides); assay: Test B postemergence; conditions: 13 to 15 days
Text: as §1, §2

[16] = test system: Surinam grass (Brachiaria decumbens); assay: Test B postemergence; conditions: 13 to 15 days
Text: as §1, §2

corn (Zea mays) [17] = assay: Test B postemergence; conditions: 13 to 15 days
Text: as §1, §2

[18] = test system: smallflower flatsedge (Cyperus difformis); assay: Test C flooded paddy test; conditions: for Flatsedge plant response rating: Flooded Paddy, scale 0 to 100, 0 no effect, 100 complete control; for Plant response rating, Flatsedge: scale 0 to 100 (0 no effect, 100 complete control)
Description: (§3) At the same time, plants selected from these crop and weed species and also winter barley (Hordeum vulgare), blackgrass (Alopecurus myosuroides), canary grass (Phalaris minor), chickweed (Stellaria media), downy brome (Bromus tectorum), green foxtail (Setaria viridis), Italian ryegrass (Lolium multiflorum), wheat (Triticum aestivum), wild oat (Avena fatua) and windgrass (Apera spica-venti) were treated with postemergence applications of some of the test chemicals formulated in the same manner. Plants ranged in height from 2 to 18 cm (1- to 4-leaf stage) for postemergence treatments. Plant species in the flooded paddy test consisted of rice (Oryza saliva), smallflower flatsedge (Cyperus difformis), duck salad (Heteranthera limosa) and barnyardgrass (Echinochloa crus-galli) grown to the 2-leaf stage for testing. Treated plants and controls were maintained in a greenhouse for 12 to 14 days, after which time all species were compared to controls and visually evaluated. Plant response ratings, summarized in Table C, are based on a scale of 0 to 100 where 0 is no effect and 100 is complete control. A dash (-) response means no test result.

rice (Oryza saliva) [19] = assay: Test C flooded paddy test; conditions: for Rice plant response rating: scale 0 to 100, 0 no effect, 100 complete control
Description: as §3

[20] = test system: barnyardgrass (Echinochloa crus-galli); assay: Test C flooded paddy test; conditions: for Barnyardgrass plant response rating: scale 0 to 100, 0 no effect, 100 complete control
Description: as §3

[21] = test system: duck salad (Heteranthera limosa); assay: Test C flooded paddy test; conditions: for Ducksalad plant response rating: scale 0 to 100, 0 no effect, 100 complete control
Description: as §3

wild oat (Avena fatua) = assay: Test B postemergence; conditions: Rate 500 g/ha, scale 0 to 100, 0 is no effect, 100 is complete control, 13 to 15 days
Text: as §1, §2

[22] = test system: wheat (Triticum aestivum); assay: Test B postemergence; conditions: Rate 500 g/ha, scale 0 to 100, 0 is no effect, 100 is complete control, 13 to 15 days
Text: as §1, §2

[23] = test system: morning glory (Ipomoea hederacea); assay: Test B postemergence; conditions: Rate 500 g/ha, scale 0 to 100, 0 is no effect, 100 is complete control, 13 to 15 days
Text: as §1, §2

[24] = test system: pigweed (Amaranthus retroflexus); assay: Test B postemergence; conditions: Rate 500 g/ha, scale 0 to 100, 0 is no effect, 100 is complete control, 13 to 15 days
Text: as §1, §2

[25] = test system: velvetleaf (Abutilon theophrasti); assay: Test B postemergence; conditions: Rate 500 g/ha, scale 0 to 100, 0 is no effect, 100 is complete control, 13 to 15 days
Text: as §1, §2

[26] = test system: lambsquarters (Chenopodium album); assay: Test B postemergence; conditions: Rate 500 g/ha, scale 0 to 100, 0 is no effect, 100 is complete control, 13 to 15 days
Text: as §1, §2

[27] = preemergence, Rate 125 g/ha, scale of 0 to 100 where 0 is no effect and 100 is complete control, 13 to 15 days
[28] = Rate 125 g/ha, scale 0 (no effect) to 100 (complete control)
[29] = flooded paddy test, Rate 62 g/ha
[30] = flooded paddy test, Rate 125 g/ha
[31] = flooded paddy test, Rate 62 g/ha, scale 0 to 100 (0 no effect, 100 complete control)
[32] = flooded paddy test, Rate 125 g/ha, scale 0 to 100 (0 no effect, 100 complete control)
[33] = Preemergence, Rate 500 g/ha, scale 0 to 100, 0 no effect, 100 complete control
[34] = Rate 500 g/ha, scale 0 to 100, 0 is no effect, 100 is complete control
[35] = flooded paddy test, Rate 62 g/ha, visually evaluated after 12 to 14 days, 0 = no effect, 100 = complete control
[36] = Flooded Paddy, Rate 1000 g/ha, scale 0 to 100
[37] = flooded paddy test, Rate 250 g/ha, scale 0 to 100 (0 no effect, 100 complete control)

SMILES: CCCCC(C)c1ccn(C2OCN(c3cccc(OC(F)(F)F)c3)C2=O)n1 (stereo not drawn) [Compound 97]
- Plant response rating, Crabgrass [1, 27]: 20
- Plant response rating, Cocklebur [2, 27]: 0
- Plant response rating, Foxtail, Giant [3, 27]: 20
- Plant response rating, Rice (rice (Oryza saliva) [4]; [27]): 0
- Plant response rating, Barnyardgrass [5, 27]: 30
- Plant response rating, Morningglory [6, 27]: 0
- Plant response rating, Pigweed [7, 27]: 0
- Plant response rating, Surinam grass [8, 27]: 0
- Plant response rating, Corn (corn (Zea mays) [9]; [27]): 0
- Plant response rating, Velvetleaf [10, 27]: 0
- Plant response rating, Lambsquarters [11, 27]: 20
- Plant response rating, Crabgrass [12, 28]: 0
- Plant response rating, Foxtail, Giant [13, 28]: 0
- Plant response rating, Barnyardgrass [14, 28]: 0
- Plant response rating, Blackgrass [15, 28]: 0
- Plant response rating, Surinam grass [16, 28]: 0
- Plant response rating, Corn (corn (Zea mays) [17]; [28]): 0
- Flatsedge plant response rating ([18]; Rate 500 g/ha): 90
- Plant response rating, Flatsedge [18, 29]: 30
- Plant response rating, Flatsedge [18, 30]: 90
- Rice plant response rating (rice (Oryza saliva) [19]; Flooded Paddy, Rate 500 g/ha): 20
- Plant response rating, Rice (rice (Oryza saliva) [19]; [31]): 0
- Plant response rating, Rice (rice (Oryza saliva) [19]; [32]): 20
- Barnyardgrass plant response rating ([20]; Flooded Paddy, Rate 500 g/ha): 100
- Plant response rating, Barnyardgrass [20, 31]: 0
- Plant response rating, Barnyardgrass [20, 32]: 40
- Ducksalad plant response rating ([21]; Flooded Paddy, Rate 500 g/ha): 0
- Plant response rating, Ducksalad [21, 31]: 0
- Plant response rating, Ducksalad [21, 32]: 0

SMILES: CCCCC(C)c1ccn(C2OCN(c3cccc(C(F)(F)F)c3)C2=O)n1 (stereo not drawn) [Compound 98]
- Plant response rating, Crabgrass [1, 33]: 100
- Plant response rating, Crabgrass [1, 27]: 0
- Plant response rating, Cocklebur [2, 33]: 0
- Plant response rating, Cocklebur [2, 27]: 0
- Plant response rating, Foxtail, Giant [3, 33]: 90
- Plant response rating, Foxtail, Giant [3, 27]: 0
- Plant response rating, Rice (rice (Oryza saliva) [4]; [33]): 30
- Plant response rating, Rice (rice (Oryza saliva) [4]; [27]): 0
- Plant response rating, Barnyardgrass [5, 33]: 90
- Plant response rating, Barnyardgrass [5, 27]: 0
- Plant response rating, Morningglory [6, 33]: 0
- Plant response rating, Morningglory [6, 27]: 0
- Plant response rating, Pigweed [7, 33]: 40
- Plant response rating, Pigweed [7, 27]: 0
- Plant response rating, Surinam grass [8, 33]: 0
- Plant response rating, Surinam grass [8, 27]: 0
- Plant response rating, Corn (corn (Zea mays) [9]; [33]): 0
- Plant response rating, Corn (corn (Zea mays) [9]; [27]): 0
- Plant response rating, Velvetleaf [10, 33]: 0
- Plant response rating, Velvetleaf [10, 27]: 0
- Plant response rating, Lambsquarters [11, 33]: 100
- Plant response rating, Lambsquarters [11, 27]: 60
- Plant response rating, Crabgrass [12, 28]: 0
- Plant response rating, Crabgrass [12, 34]: 20
- Plant response rating, Foxtail, Giant [13, 28]: 0
- Plant response rating, Foxtail, Giant [13, 34]: 20
- Plant response rating, Wild Oat (wild oat (Avena fatua)): 0
- Plant response rating, Barnyardgrass [14, 28]: 0
- Plant response rating, Barnyardgrass [14, 34]: 0
- Plant response rating, Blackgrass [15, 28]: 0
- Plant response rating, Blackgrass [15, 34]: 0
- Plant response rating, Wheat [22]: 0
- Plant response rating, Morningglory [23]: 0
- Plant response rating, Pigweed [24]: 100
- Plant response rating, Surinam grass [16, 28]: 0
- Plant response rating, Surinam grass [16, 34]: 0
- Plant response rating, Corn (corn (Zea mays) [17]; [28]): 0
- Plant response rating, Corn (corn (Zea mays) [17]; [34]): 0
- Plant response rating, Velvetleaf [25]: 20
- Plant response rating, Lambsquarters [26]: 80
- Flatsedge plant response rating ([18]; Rate 250 g/ha): 90
- Flatsedge plant response rating ([18]; Rate 500 g/ha): 90
- Plant response rating, Flatsedge [18, 29]: 60
- Plant response rating, Flatsedge [18, 30]: 80
- Rice plant response rating (rice (Oryza saliva) [19]; Flooded Paddy, Rate 250 g/ha): 50
- Rice plant response rating (rice (Oryza saliva) [19]; Flooded Paddy, Rate 500 g/ha): 50
- Plant response rating, Rice (rice (Oryza saliva) [19]; [31]): 0
- Plant response rating, Rice (rice (Oryza saliva) [19]; [32]): 50
- Barnyardgrass plant response rating ([20]; Flooded Paddy, Rate 250 g/ha): 30
- Barnyardgrass plant response rating ([20]; Flooded Paddy, Rate 500 g/ha): 50
- Plant response rating, Barnyardgrass [20, 31]: 0
- Plant response rating, Barnyardgrass [20, 32]: 0
- Ducksalad plant response rating ([21]; Flooded Paddy, Rate 250 g/ha): 0
- Ducksalad plant response rating ([21]; Flooded Paddy, Rate 500 g/ha): 0
- Plant response rating, Ducksalad [21, 31]: 0
- Plant response rating, Ducksalad [21, 32]: 0

SMILES: CC(C)(C)C1=NN(C2CCN(c3cccc(C(F)(F)F)c3)C2=O)CC1 (stereo not drawn) [Compound 135]
- Flatsedge plant response rating ([18]; Rate 500 g/ha): 90
- Flatsedge plant response rating ([18]; rate of this column group stands in head line r653, not shown (group before Rate 500 g/ha)): 100
- Plant response rating, Flatsedge [18, 30]: 20
- Plant response rating, Flatsedge ([18]; flooded paddy test, Rate 250 g/ha): 90
- Plant response rating (scale 0 to 100), Flatsedge [18, 35]: 0
- Plant response rating, Rice (rice (Oryza saliva) [19]; [36]): 0
- Rice plant response rating (rice (Oryza saliva) [19]; Flooded Paddy, Rate 500 g/ha): 0
- Plant response rating, Rice (rice (Oryza saliva) [19]; [32]): 0
- Plant response rating, Rice (rice (Oryza saliva) [19]; [37]): 0
- Plant response rating (scale 0 to 100), Rice (rice (Oryza saliva) [19]; [35]): 0
- Plant response rating, Barnyardgrass [20, 36]: 30
- Barnyardgrass plant response rating ([20]; Flooded Paddy, Rate 500 g/ha): 20
- Plant response rating, Barnyardgrass [20, 32]: 0
- Plant response rating, Barnyardgrass [20, 37]: 0
- Plant response rating (scale 0 to 100), Barnyardgrass [20, 35]: 0
- Plant response rating, Ducksalad [21, 36]: 30
- Ducksalad plant response rating ([21]; Flooded Paddy, Rate 500 g/ha): 0
- Plant response rating, Ducksalad [21, 32]: 0
- Plant response rating, Ducksalad [21, 37]: 0
- Plant response rating (scale 0 to 100), Ducksalad [21, 35]: 0
